Test results: the supplement of paper PMC10307832

How the values were obtained:
Assay in all cases: relative viability (nuclei count vs DMSO), 5 days (fraction); higher = more cells survive
Carboplatin + Luminespib = compound: C1CC(C1)(C(=O)O)C(=O)O.[NH2-].[NH2-].[Pt+2] [Carboplatin] + CCNC(=O)c1noc(-c2cc(C(C)C)c(O)cc2O)c1-c1ccc(CN2CCOCC2)cc1 [Luminespib] (partner 0.01 µM)
Method in brief: (§1)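 Medians of duplicate plates are given as relative viability. That measure is the nuclei count in treated wells divided by the count in vehicle wells. Counts were taken on 4× images of lung cancer cell lines in 1536-well plates, 5 days after pin-tool dosing the day after seeding with one drug alone or a fixed anchor-drug dose plus five library-drug doses (not always all listed) in √10 steps.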

GSK126 + Decitabine = compound: CC[C@H](C)N1C=C(C2=C(C=C(C=C21)C3=CN=C(C=C3)N4CCNCC4)C(=O)NCC5=C(C=C(NC5=O)C)C)C [GSK126] + Nc1ncn([C@H]2C[C@H](O)[C@@H](CO)O2)c(=O)n1 [Decitabine] (partner 2 µM)
Method in brief: as §1

GSK126 + Phenformin = compound: CC[C@H](C)N1C=C(C2=C(C=C(C=C21)C3=CN=C(C=C3)N4CCNCC4)C(=O)NCC5=C(C=C(NC5=O)C)C)C [GSK126] + N=C(N)NC(=N)NCCc1ccccc1 [Phenformin] (partner 250 µM)
Method in brief: as §1

MLN4924 + Trametinib = compound: NS(=O)(=O)OC[C@@H]1C[C@@H](n2ccc3c(N[C@H]4CCc5ccccc54)ncnc32)C[C@@H]1O [MLN4924] + CC(=O)Nc1cccc(-n2c(=O)n(C3CC3)c(=O)c3c(Nc4ccc(I)cc4F)n(C)c(=O)c(C)c32)c1 [Trametinib] (partner 0.02 µM)
Method in brief: as §1

Q: How did the relative viability (Carboplatin + Luminespib; first compound 0.08 µM) turn out when UMC-11 was run?
A: 0.961

Q: And the relative viability (Carboplatin + Luminespib; first compound 0.253 µM)?
A: 1.01

Q: What about the relative viability (Carboplatin + Luminespib; first compound 0.8 µM) of the same cell line?
A: 1

Q: What about the relative viability (Carboplatin + Luminespib; first compound 2.53 µM) of the same cell line?
A: 0.955

Q: What about the relative viability (Carboplatin + Luminespib; first compound 8 µM) of the same cell line?
A: 0.651

Q: And the relative viability (GSK126 + Decitabine; first compound 0.08 µM)?
A: 0.695

Q: What about the relative viability (GSK126 + Decitabine; first compound 0.253 µM) of the same cell line?
A: 0.557

Q: And the relative viability (GSK126 + Decitabine; first compound 0.8 µM)?
A: 0.626

Q: And the relative viability (GSK126 + Decitabine; first compound 2.53 µM)?
A: 0.604

Q: What about the relative viability (GSK126 + Decitabine; first compound 8 µM) of the same cell line?
A: 0.658

Q: What about the relative viability (GSK126 + Phenformin; first compound 0.08 µM) of the same cell line?
A: 0.35

Q: And the relative viability (GSK126 + Phenformin; first compound 0.253 µM)?
A: 0.344

Q: What about the relative viability (GSK126 + Phenformin; first compound 0.8 µM) of the same cell line?
A: 0.312

Q: What about the relative viability (GSK126 + Phenformin; first compound 2.53 µM) of the same cell line?
A: 0.32

Q: What about the relative viability (GSK126 + Phenformin; first compound 8 µM) of the same cell line?
A: 0.3

Q: What about the relative viability (MLN4924 + Trametinib; first compound 0.04 µM) of the same cell line?
A: 0.487

Q: And the relative viability (MLN4924 + Trametinib; first compound 0.1265 µM)?
A: 0.367

Q: And the relative viability (MLN4924 + Trametinib; first compound 0.4 µM)?
A: 0.253

Q: What about the relative viability (MLN4924 + Trametinib; first compound 1.265 µM) of the same cell line?
A: 0.115

Q: And the relative viability (MLN4924 + Trametinib; first compound 4 µM)?
A: 0.142
